What all share (test): cell-based
Assay [1] addresses T1, IL-23R (Homo sapiens, UniProt Q5VWK5).
Excerpt: DB Cells IL23R pSTAT3 Cell Assay
Changes in phospho-STAT3 levels in the cell lysates were detected using the Cisbio HTRF pSTAT3 Cellular Assay Kit, according to manufacturer's Two Plate Assay protocol.
The target in assay [2] is T1, IL-23R. Particulars: PBMC pSTAT3 IC50 (nM), PBMCs from healthy donors, IL-23 5 ng/mL, 30 minutes, phosphorylated STAT3.
Assay [3] concerns the target T1, IL-23R. This is another data set of the same source.
Description: After 7 days, cells were centrifuged, and resuspended in complete media at IE6 cells/mL. […] After 20 to 24 hours, IFNγ in the supernatant was quantified using Quantikine ELISA (RnD, Cat #DIF50).

Where two headings read alike, the source gives them in different places. Starred links: 1 amine or outer side, 2 acyl side, 3 side chain; linkers in the order of their positions; H or OH if unused. Positions of bridges follow the written chain, without caps; N, C: chain ends. Non-standard residues stand in square brackets, D forms with d. Residues, ends and D or L forms follow the SMILES beside them. Trp(7-Ph) = N[C@@H](Cc1c[nH]c2c(-c3ccccc3)cccc12)C(=O)O; Trp(7-Me) = Cc1cccc2c(C[C@H](N)C(=O)O)c[nH]c12; Abu(4-yl) = O=C([C@H](CC[*:3])N[*:1])[*:2]; 2Nal = N[C@@H](Cc1ccc2ccccc2c1)C(=O)O; AEF = NCCOc1ccc(C[C@H](N)C(=O)O)cc1; αMeF = C[C@](N)(Cc1ccccc1)C(=O)O; Cit = NC(=O)NCCC[C@H](N)C(=O)O; Pen = CC(C)(S)[C@H](N)C(=O)O; αMeK = C[C@](N)(CCCCN)C(=O)O; dDap = NC[C@@H](N)C(=O)O; Aib = CC(C)(N)C(=O)O

The values below come from patent US20240383954A1, “PEPTIDE INHIBITORS OF INTERLEUKIN-23 RECEPTOR AND THEIR USE TO TREAT INFLAMMATORY DISEASES” (Janssen Biotech, Inc., priority 2020, published 2024).

T1 sequence (Q5VWK5 24-629): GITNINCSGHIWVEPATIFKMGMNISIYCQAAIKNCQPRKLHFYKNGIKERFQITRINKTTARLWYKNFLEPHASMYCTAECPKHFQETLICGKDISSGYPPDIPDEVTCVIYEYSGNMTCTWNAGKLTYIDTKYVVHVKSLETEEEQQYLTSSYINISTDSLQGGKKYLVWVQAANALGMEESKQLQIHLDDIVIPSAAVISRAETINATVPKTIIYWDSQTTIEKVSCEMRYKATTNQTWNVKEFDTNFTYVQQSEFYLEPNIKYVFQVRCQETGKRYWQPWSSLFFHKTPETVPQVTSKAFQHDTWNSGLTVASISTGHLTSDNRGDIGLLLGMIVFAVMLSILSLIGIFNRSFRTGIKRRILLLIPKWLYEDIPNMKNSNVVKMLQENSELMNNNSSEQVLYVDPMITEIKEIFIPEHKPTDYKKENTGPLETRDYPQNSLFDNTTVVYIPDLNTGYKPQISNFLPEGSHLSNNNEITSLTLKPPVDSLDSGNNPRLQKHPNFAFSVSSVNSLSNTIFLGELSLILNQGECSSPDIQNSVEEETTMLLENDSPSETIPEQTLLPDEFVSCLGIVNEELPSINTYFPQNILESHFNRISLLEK

In the case of `CC(=O)NCCCC[C@@H]1NC(=O)[C@H](Cc2c[nH]c3c(C)cccc23)NC(=O)[C@H]([C@@H](C)O)NC(=O)[C@H](CC(N)=O)NC(=O)[C@@H](NC(C)=O)C(C)(C)SSC(C)(C)[C@@H](C(=O)N[C@@H](Cc2ccc(OCCN)cc2)C(=O)N[C@@H](Cc2ccc3ccccc3c2)C(=O)N[C@@](C)(CCCCN)C(=O)N[C@@H](CCCCNC(C)=O)C(=O)N[C@@H](CC(N)=O)C(=O)N[C@H](CC(C)C)C(=O)N[C@@](C)(Cc2ccccc2)C(N)=O)NC1=O` [Compound 68, Ac-[Pen]-N-T-[W(7-Me)]-[Lys(Ac)]-[Pen]-Phe[4-(2-aminoethoxy)]-[2-Nal]-[a-MeLys]-[Lys(Ac)]-N-[(D)Leu]-[aMePhe]-am], the IC50 (as a rule, the concentration needed to halve the response being measured) against IL-23R [1] amounted to 0.007 µM.

The compound `CC(=O)NCCCC[C@@H]1NC(=O)[C@H](Cc2c[nH]c3c(C)cccc23)NC(=O)[C@@H](CN)NC(=O)[C@H](CC(N)=O)NC(=O)[C@@H](NC(C)=O)C(C)(C)SSC(C)(C)[C@@H](C(=O)N[C@@H](Cc2ccc(OCCN)cc2)C(=O)N[C@@H](Cc2ccc3ccccc3c2)C(=O)N[C@@](C)(CCCCN)C(=O)N[C@@H](CCCCNC(C)=O)C(=O)N[C@@H](CC(N)=O)C(=O)N[C@H](CC(C)C)C(N)=O)NC1=O` [Compound 72, Ac-[Pen]-N-[(D)Dap]-[W(7-Me)]-[Lys(Ac)]-[Pen]-Phe[4-(2-aminoethoxy)]-[2-Nal]-[a-MeLys]-[Lys(Ac)]-N-[(D)Leu]-NH2] (Ac-[Pen]N[dDap][Trp(7-Me)]K(Ac)[Pen][AEF][2Nal][αMeK]K(Ac)N[dL]-NH2; disulfide 1-6) had an IC50 against IL-23R [1] of 0.0526 µM.

On to `CC(=O)NCCCC[C@@H]1NC(=O)[C@H](Cc2c[nH]c3c(-c4ccccc4)cccc23)NC(=O)[C@H]([C@@H](C)O)NC(=O)[C@H](CCC(N)=O)NC(=O)[C@@H](NC(=O)[C@@H](CCCNC(=N)N)NC(C)=O)CCSC[C@@H](C(=O)N[C@@H](Cc2ccc(OCCN)cc2)C(=O)N[C@@H](Cc2ccc3ccccc3c2)C(=O)N[C@@](C)(CCCCN)C(=O)N[C@@H](CCCCNC(C)=O)C(=O)N[C@@H](CC(N)=O)C(=O)N[C@@](C)(Cc2ccccc2)C(N)=O)NC1=O` [Compound 11, Ac-[(D)Arg]-[Abu]-Q-T-[W(7-Ph)]-[Lys(Ac)]-[Cys]-Phe[4-(2-aminoethoxy)]-[2-Nal]-[a-MeLys]-[Lys(Ac)]-N-[a-MePhe]-NH2] (Ac-[dR][Abu(4-yl)]QT[Trp(7-Ph)]K(Ac)C[AEF][2Nal][αMeK]K(Ac)N[αMeF]-NH2; thioether 2-7), for which the concentration for half-maximal inhibition (IC50) at IL-23R [1] was found to be 0.0139 µM.

On to `CC(=O)NCCCC[C@@H]1NC(=O)[C@H](Cc2c[nH]c3c(C)cccc23)NC(=O)[C@H]([C@@H](C)O)NC(=O)[C@H](CC(N)=O)NC(=O)[C@@H](NC(C)=O)C(C)(C)SSC(C)(C)[C@@H](C(=O)N[C@@H](Cc2ccc(OCCN)cc2)C(=O)N[C@@H](Cc2ccc3ccccc3c2)C(=O)N[C@@](C)(CCCCN)C(=O)N[C@@H](CCCCNC(C)=O)C(=O)N[C@@H](CC(N)=O)C(=O)NC(C)(C)C(=O)N[C@H](CC(N)=O)Cc2ccccc2)NC1=O` [Compound 71, Ac-[Pen]-N-T-[W(7-Me)]-[Lys(Ac)]-[Pen]-Phe[4-(2-aminoethoxy)]-[2-Nal]-[a-MeLys]-[Lys(Ac)]-N-[Aib]-[bhPhe]-NH2], for which it took 0.00339 µM to reach half-maximal inhibition against IL-23R [1] (IC50).

The compound `CC(=O)NCCCC[C@@H]1NC(=O)[C@H](Cc2c[nH]c3c(C)cccc23)NC(=O)[C@H]([C@@H](C)O)NC(=O)[C@H](CCC(N)=O)NC(=O)[C@@H](NC(=O)[C@@H](CCCNC(=N)N)NC(C)=O)CCSC[C@@H](C(=O)N[C@@H](Cc2ccc(OCCN)cc2)C(=O)N[C@@H](Cc2ccc3ccccc3c2)C(=O)N[C@@](C)(CCCCN)C(=O)N[C@@H](CCCCNC(C)=O)C(=O)N[C@@H](CC(N)=O)C(=O)N[C@@](C)(Cc2ccccc2)C(N)=O)NC1=O` [Compound 201, Ac-[(D)Arg]-[Abu]-Q-T-[W(7-Me)]-[Lys(Ac)]-[Cys]-Phe[4-(2-aminoethoxy)]-[2-Nal]-[a-MeLys]-[Lys(Ac)]-N-[a-MePhe]-NH2] (Ac-[dR][Abu(4-yl)]QT[Trp(7-Me)]K(Ac)C[AEF][2Nal][αMeK]K(Ac)N[αMeF]-NH2; thioether 2-7) registered an IC50 on IL-23R [1] of 0.0127 µM.

For `CC(=O)NCCCC[C@@H]1NC(=O)[C@H](Cc2c[nH]c3c(C)cccc23)NC(=O)[C@H]([C@@H](C)O)NC(=O)[C@H](CC(N)=O)NC(=O)[C@@H](NC(C)=O)C(C)(C)SSC(C)(C)[C@@H](C(=O)N[C@@H](Cc2ccc(OCCN)cc2)C(=O)N[C@@H](Cc2ccc3ccccc3c2)C(=O)N[C@@](C)(CCCCN)C(=O)N[C@@H](CCCCNC(C)=O)C(=O)N[C@@H](CC(N)=O)C(=O)N[C@@H](Cc2ccc(N)cc2)C(N)=O)NC1=O` [Compound 112, Ac-[Pen]-N-T-[W(7-Me)]-[Lys(Ac)]-[Pen]-Phe[4-(2-aminoethoxy)]-[2-Nal]-[a-MeLys]-[Lys(Ac)]-N-Phe[4-NH2]-NH2], on IL-23R [1], the concentration for half-maximal inhibition (IC50) worked out at 0.00209 µM.

`CCC(=O)N[C@H](CCCNC(=N)N)C(=O)N[C@@H]1C(=O)N[C@@H](CCC(N)=O)C(=O)N[C@@H]([C@@H](C)O)C(=O)N[C@@H](Cc2c[nH]c3ccccc23)C(=O)N[C@@H](CCC(N)=O)C(=O)N[C@H](C(=O)N[C@@H](Cc2ccc(OCCN)cc2)C(=O)N[C@@H](Cc2ccc3ccccc3c2)C(=O)NC2(C(=O)N[C@@H](CCCCNC(=O)C(F)(F)F)C(=O)N[C@@H](CC(N)=O)C(=O)NC3(C(N)=O)CCOCC3)CCOCC2)C(C)(C)SSC1(C)C` [Compound 6, [Propionic_acid]-[(D)Arg]-[Pen]-Q-T-W-Q-[Pen]-Phe[4-(2-aminoethoxy)]-[2-Nal]-[THP]-[Lys(COCF3)]-N-[THP]-NH2]: the values for the 50% inhibitory concentration (IC50) at IL-23R [2] and at IL-23R [3] were 8.6 nM and 0.0168 µM, respectively.

For the compound `CC(=O)NCCCC[C@@H]1NC(=O)[C@H](Cc2c[nH]c3c(C)cccc23)NC(=O)[C@@H](CCCCN)NC(=O)[C@H](CC(N)=O)NC(=O)[C@@H](NC(C)=O)C(C)(C)SSC(C)(C)[C@@H](C(=O)N[C@@H](Cc2ccc(OCCN)cc2)C(=O)N[C@@H](Cc2ccc3ccccc3c2)C(=O)N[C@@](C)(CCCCN)C(=O)N[C@@H](CCCCNC(C)=O)C(=O)N[C@@H](CC(N)=O)C(=O)N[C@H](CC(C)C)C(N)=O)NC1=O` [Compound 73, Ac-[Pen]-N-[(D)Lys]-[W(7-Me)]-[Lys(Ac)]-[Pen]-Phe[4-(2-aminoethoxy)]-[2-Nal]-[a-MeLys]-[Lys(Ac)]-N-[(D)Leu]-NH2] (Ac-[Pen]N[dK][Trp(7-Me)]K(Ac)[Pen][AEF][2Nal][αMeK]K(Ac)N[dL]-NH2; disulfide 1-6), half-maximal inhibition on IL-23R [1] (IC50) was put at 0.0511 µM.

For the compound `CC(=O)NCCCC[C@H](NC(=O)[C@](C)(CCCCN)NC(=O)[C@H](Cc1ccc2ccccc2c1)NC(=O)[C@H](Cc1ccc(OCCN)cc1)NC(=O)[C@H]1NC(=O)[C@H](CCCNC(N)=O)NC(=O)[C@H](Cc2c[nH]c3c(C)cccc23)NC(=O)[C@H]([C@@H](C)O)NC(=O)[C@H](CC(N)=O)NC(=O)[C@@H](NC(C)=O)C(C)(C)SSC1(C)C)C(=O)N[C@@H](CC(N)=O)C(=O)NC(C)(C)C(=O)N[C@H](Cc1ccc(O)cc1)C(N)=O` [Compound 202, Ac-[Pen]-N-T-[W(7-Me)]-[Cit]-[Pen]-Phe[4-(2-aminoethoxy)]-[2-Nal]-[a-MeLys]-[Lys(Ac)]-N-[Aib]-[(D)Tyr]-NH2] (Ac-[Pen]NT[Trp(7-Me)][Cit][Pen][AEF][2Nal][αMeK]K(Ac)N[Aib][dY]-NH2; disulfide 1-6), at IL-23R [1], the 50% inhibitory concentration (IC50) is 0.000637 µM.
